As a reminder, the IC50 is the concentration needed to halve the response being measured.

Where “and” joins values, the source holds several entries; their conditions need not be identical. Identical values can stand only once. Records with an inconclusive call do not appear. Calls of active or inactive are those of the source.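 The calls were made as follows: active = falling signal with fitted half-maximal potency no higher than twice the top valid tested dose; inconclusive = poor fit quality, or flat fit spanning -70% to -30%; inactive = potency over limit, rising signal, or flat fit inside 30%.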

The assay relates to Cryptococcus neoformans growth, Alamar Blue, 24 h. Put plainly: fungal growth arrest, C. neoformans – Alamar Blue, cherry-picks, dose response (AID 686998). In general terms: Resazurin is reduced to fluorescent resorufin, in cell work by metabolically active cells.
Turning to `CNC[C@@H]1Oc2c(NS(=O)(=O)c3ccc(Cl)cc3)cccc2C(=O)N([C@H](C)CO)C[C@H]1C`, the IC50 was > 70 µM (inactive).
The same measure for `Cc1ccccc1S(=O)(=O)N[C@@H]1CC[C@H](CCNS(=O)(=O)c2cccc(F)c2)O[C@H]1CO`: > 70 µM (inactive); for `C[C@H]1CN([C@@H](C)CO)C(=O)c2cc(-c3ccccc3)cnc2O[C@@H]1CN(C)C(=O)c1ccccn1`: 42.3 µM; for `CCOC(=O)NC(=S)Nc1ccc(C(C)(C)C)cc1`: 7.22 µM.
As to `CC(C)NC(=O)Nc1ccc2c(c1)C(=O)N([C@@H](C)CO)C[C@@H](C)[C@@H](CN(C)C(=O)NC1CCCCC1)OCCCC[C@H](C)O2`, the IC50 is less than 0.26 µM.
As for `C[C@@H]1CN([C@H](C)CO)C(=O)Cc2cc(NC(=O)CCCCCC(=O)Nc3ccccc3N)ccc2O[C@H]1CN(C)C(=O)Nc1ccccc1`, the figure is 4.69 µM; as for `COC(=O)C1=C(C)N(Cc2ccc(Cl)cc2)C(=S)NC1c1ccc(Br)cc1` (centres undefined), 14.7 µM.
With `COc1cccc(CNC(=O)COc2ccc(C(=O)c3ccccc3)cc2)c1`, the IC50 was 21 µM.
As to `CO[C@@H]1CN(C)C(=O)c2cc(NC(=O)C3CCOCC3)ccc2OC[C@H](C)NC[C@@H]1C`, the IC50 was 67.4 µM.
Consider `COCC(=O)Nc1ccc2c(c1)C(=O)N(C)C[C@H](OC)[C@@H](C)CN(C(=O)c1ccccc1)[C@@H](C)CO2`, for which the IC50 is > 70 µM (inactive).
As for `O=C(NC(=S)Nc1ccccc1N1CCOCC1)c1ccccc1F`, the figure is 20.9 µM; as for `O=C(COc1ccccc1)NCc1ccccc1`, 2.84 µM; as for `Cc1cc(Cl)ccc1NC(=S)NCc1ccc(F)cc1`, 15.5 µM.
The same measure for `COC(=O)C1=C(C)N(Cc2ccccc2)C(=S)NC1c1cccc(OC)c1` (centres undefined): 32.5 µM; for `COc1cccc(NC(=O)CN2CCN(S(=O)(=O)c3ccc(C(C)C)cc3)CC2)c1`: > 70 µM (inactive).
For the compound `Cc1cc(C)c(NC(=O)CN2CCCCCC2)c(C)c1`, the IC50 is 0.858 µM.
Consider `COc1ccc(CN(C)C[C@H]2Oc3ccc(NS(C)(=O)=O)cc3CC(=O)N([C@@H](C)CO)C[C@H]2C)cc1`, for which the IC50 was 39.9 µM.
As for `CCC(=O)N1[C@H](CN(C)C(C)=O)[C@@H](c2ccc(C3=CCCCC3)cc2)[C@@H]1CO`, the figure is 40.4 µM.
As to `CC(NC(=O)COc1ccccc1C(C)(C)C)c1ccccc1` (centres undefined), the IC50 is 3.83 µM.
Take `Cc1c(C(=O)NC(=S)Nc2ccc(N3CCOCC3)cc2)cccc1[N+](=O)[O-]`: the IC50 was 34.7 µM.
Consider `S=C(NCc1ccccc1)NCC1COc2ccccc2O1` (centres undefined), for which the IC50 was 21 µM.
As to `CCCNC(=O)[C@H]1[C@H](CO)[C@H]2Cn3c(cccc3=O)[C@@H]1N2C(=O)Nc1cc(F)ccc1F`, the IC50 was 68.5 µM.
`O=C(C[C@@H]1C=C[C@@H](NC(=O)Nc2cc(F)ccc2F)[C@H](CO)O1)NCCCN1CCOCC1`: the IC50 is 68.3 µM.
Turning to `Cc1ccc(C(=O)Nc2ccc3ncccc3c2)cc1`, the half-maximal inhibitory concentration (IC50) was 24 µM.
Regarding `Cc1cccc(NC(=S)NN(Cc2ccccc2)c2ccccc2)c1C`, the IC50 was 11.9 µM.
On to `COC(=O)C1=C(C)N(CC(C)C)C(=S)NC1c1cccc(F)c1` (centres undefined), for which the IC50 is 23.8 µM and 46.8 µM.
For `CCCC(=O)N1CCC1(C)C(=O)Nc1cc(C)ccc1C` (centres undefined), the IC50 is > 70 µM (inactive).
Consider `C[C@H](CO)N1C[C@H](C)[C@@H](CN(C)Cc2ccc(Oc3ccccc3)cc2)Oc2ccc(NC(=O)Nc3ccc4c(c3)OCO4)cc2C1=O`, for which the IC50 is > 70 µM (inactive).
With `NC(=S)N/N=C/c1ccc(-c2cc(Cl)ccc2Cl)o1`, the IC50 is 4.48 µM.
Turning to `COC(=O)C1=C(C)N(Cc2ccc(Cl)cc2)C(=S)NC1c1cccc(Cl)c1` (centres undefined), the IC50 is 15.1 µM.
As for `Fc1ccccc1CNC(=S)NCc1ccc(Cl)cc1`, the figure is 12.8 µM; as for `O=C(NC(=S)Nc1ccccc1N1CCOCC1)c1ccc(Br)cc1`, 6.23 µM.
As for `O=C(c1cccs1)N1CCN(c2nc3ccccc3s2)CC1`, the figure is > 70 µM (inactive).
As for `COc1ccccc1NC(=O)c1cn(C)c(=O)c2cc(OC)c(OC)cc12`, the IC50 was 50.1 µM.

The values above are taken from PubChem BioAssay AID686998 (Broad Institute, 2013).
